According to US20220220155A1, “VASCULAR C[…] USE THEREOF” (priority 2019, published 2022):
Where a SMILES comes first, the peptide text is derived from it. [ ]: non-standard residue; d: D form. ξ: configuration not given here. ξD = NC(CC(=O)O)C(=O)O

Assays:
[1] = target: T1, SMase-treated LDL (Homo sapiens, UniProt P04114); experiment: Anti-LDL aggregation assay, turbidimetry, aggregation induced by sphingomyelinase (SMase); type: biochemical; details: peptide 10 μM (compound/ApoB-100 4.7/1), human LDL 1.44 mg/mL, 40 U/L Bacillus cereus SMase, 18 hours, 37° C., absorbance at 405 nm, Equation I
T1 construct: from tissue; host or cells: pooled normolipemic human plasma
T1 sequence (P04114 28-4563): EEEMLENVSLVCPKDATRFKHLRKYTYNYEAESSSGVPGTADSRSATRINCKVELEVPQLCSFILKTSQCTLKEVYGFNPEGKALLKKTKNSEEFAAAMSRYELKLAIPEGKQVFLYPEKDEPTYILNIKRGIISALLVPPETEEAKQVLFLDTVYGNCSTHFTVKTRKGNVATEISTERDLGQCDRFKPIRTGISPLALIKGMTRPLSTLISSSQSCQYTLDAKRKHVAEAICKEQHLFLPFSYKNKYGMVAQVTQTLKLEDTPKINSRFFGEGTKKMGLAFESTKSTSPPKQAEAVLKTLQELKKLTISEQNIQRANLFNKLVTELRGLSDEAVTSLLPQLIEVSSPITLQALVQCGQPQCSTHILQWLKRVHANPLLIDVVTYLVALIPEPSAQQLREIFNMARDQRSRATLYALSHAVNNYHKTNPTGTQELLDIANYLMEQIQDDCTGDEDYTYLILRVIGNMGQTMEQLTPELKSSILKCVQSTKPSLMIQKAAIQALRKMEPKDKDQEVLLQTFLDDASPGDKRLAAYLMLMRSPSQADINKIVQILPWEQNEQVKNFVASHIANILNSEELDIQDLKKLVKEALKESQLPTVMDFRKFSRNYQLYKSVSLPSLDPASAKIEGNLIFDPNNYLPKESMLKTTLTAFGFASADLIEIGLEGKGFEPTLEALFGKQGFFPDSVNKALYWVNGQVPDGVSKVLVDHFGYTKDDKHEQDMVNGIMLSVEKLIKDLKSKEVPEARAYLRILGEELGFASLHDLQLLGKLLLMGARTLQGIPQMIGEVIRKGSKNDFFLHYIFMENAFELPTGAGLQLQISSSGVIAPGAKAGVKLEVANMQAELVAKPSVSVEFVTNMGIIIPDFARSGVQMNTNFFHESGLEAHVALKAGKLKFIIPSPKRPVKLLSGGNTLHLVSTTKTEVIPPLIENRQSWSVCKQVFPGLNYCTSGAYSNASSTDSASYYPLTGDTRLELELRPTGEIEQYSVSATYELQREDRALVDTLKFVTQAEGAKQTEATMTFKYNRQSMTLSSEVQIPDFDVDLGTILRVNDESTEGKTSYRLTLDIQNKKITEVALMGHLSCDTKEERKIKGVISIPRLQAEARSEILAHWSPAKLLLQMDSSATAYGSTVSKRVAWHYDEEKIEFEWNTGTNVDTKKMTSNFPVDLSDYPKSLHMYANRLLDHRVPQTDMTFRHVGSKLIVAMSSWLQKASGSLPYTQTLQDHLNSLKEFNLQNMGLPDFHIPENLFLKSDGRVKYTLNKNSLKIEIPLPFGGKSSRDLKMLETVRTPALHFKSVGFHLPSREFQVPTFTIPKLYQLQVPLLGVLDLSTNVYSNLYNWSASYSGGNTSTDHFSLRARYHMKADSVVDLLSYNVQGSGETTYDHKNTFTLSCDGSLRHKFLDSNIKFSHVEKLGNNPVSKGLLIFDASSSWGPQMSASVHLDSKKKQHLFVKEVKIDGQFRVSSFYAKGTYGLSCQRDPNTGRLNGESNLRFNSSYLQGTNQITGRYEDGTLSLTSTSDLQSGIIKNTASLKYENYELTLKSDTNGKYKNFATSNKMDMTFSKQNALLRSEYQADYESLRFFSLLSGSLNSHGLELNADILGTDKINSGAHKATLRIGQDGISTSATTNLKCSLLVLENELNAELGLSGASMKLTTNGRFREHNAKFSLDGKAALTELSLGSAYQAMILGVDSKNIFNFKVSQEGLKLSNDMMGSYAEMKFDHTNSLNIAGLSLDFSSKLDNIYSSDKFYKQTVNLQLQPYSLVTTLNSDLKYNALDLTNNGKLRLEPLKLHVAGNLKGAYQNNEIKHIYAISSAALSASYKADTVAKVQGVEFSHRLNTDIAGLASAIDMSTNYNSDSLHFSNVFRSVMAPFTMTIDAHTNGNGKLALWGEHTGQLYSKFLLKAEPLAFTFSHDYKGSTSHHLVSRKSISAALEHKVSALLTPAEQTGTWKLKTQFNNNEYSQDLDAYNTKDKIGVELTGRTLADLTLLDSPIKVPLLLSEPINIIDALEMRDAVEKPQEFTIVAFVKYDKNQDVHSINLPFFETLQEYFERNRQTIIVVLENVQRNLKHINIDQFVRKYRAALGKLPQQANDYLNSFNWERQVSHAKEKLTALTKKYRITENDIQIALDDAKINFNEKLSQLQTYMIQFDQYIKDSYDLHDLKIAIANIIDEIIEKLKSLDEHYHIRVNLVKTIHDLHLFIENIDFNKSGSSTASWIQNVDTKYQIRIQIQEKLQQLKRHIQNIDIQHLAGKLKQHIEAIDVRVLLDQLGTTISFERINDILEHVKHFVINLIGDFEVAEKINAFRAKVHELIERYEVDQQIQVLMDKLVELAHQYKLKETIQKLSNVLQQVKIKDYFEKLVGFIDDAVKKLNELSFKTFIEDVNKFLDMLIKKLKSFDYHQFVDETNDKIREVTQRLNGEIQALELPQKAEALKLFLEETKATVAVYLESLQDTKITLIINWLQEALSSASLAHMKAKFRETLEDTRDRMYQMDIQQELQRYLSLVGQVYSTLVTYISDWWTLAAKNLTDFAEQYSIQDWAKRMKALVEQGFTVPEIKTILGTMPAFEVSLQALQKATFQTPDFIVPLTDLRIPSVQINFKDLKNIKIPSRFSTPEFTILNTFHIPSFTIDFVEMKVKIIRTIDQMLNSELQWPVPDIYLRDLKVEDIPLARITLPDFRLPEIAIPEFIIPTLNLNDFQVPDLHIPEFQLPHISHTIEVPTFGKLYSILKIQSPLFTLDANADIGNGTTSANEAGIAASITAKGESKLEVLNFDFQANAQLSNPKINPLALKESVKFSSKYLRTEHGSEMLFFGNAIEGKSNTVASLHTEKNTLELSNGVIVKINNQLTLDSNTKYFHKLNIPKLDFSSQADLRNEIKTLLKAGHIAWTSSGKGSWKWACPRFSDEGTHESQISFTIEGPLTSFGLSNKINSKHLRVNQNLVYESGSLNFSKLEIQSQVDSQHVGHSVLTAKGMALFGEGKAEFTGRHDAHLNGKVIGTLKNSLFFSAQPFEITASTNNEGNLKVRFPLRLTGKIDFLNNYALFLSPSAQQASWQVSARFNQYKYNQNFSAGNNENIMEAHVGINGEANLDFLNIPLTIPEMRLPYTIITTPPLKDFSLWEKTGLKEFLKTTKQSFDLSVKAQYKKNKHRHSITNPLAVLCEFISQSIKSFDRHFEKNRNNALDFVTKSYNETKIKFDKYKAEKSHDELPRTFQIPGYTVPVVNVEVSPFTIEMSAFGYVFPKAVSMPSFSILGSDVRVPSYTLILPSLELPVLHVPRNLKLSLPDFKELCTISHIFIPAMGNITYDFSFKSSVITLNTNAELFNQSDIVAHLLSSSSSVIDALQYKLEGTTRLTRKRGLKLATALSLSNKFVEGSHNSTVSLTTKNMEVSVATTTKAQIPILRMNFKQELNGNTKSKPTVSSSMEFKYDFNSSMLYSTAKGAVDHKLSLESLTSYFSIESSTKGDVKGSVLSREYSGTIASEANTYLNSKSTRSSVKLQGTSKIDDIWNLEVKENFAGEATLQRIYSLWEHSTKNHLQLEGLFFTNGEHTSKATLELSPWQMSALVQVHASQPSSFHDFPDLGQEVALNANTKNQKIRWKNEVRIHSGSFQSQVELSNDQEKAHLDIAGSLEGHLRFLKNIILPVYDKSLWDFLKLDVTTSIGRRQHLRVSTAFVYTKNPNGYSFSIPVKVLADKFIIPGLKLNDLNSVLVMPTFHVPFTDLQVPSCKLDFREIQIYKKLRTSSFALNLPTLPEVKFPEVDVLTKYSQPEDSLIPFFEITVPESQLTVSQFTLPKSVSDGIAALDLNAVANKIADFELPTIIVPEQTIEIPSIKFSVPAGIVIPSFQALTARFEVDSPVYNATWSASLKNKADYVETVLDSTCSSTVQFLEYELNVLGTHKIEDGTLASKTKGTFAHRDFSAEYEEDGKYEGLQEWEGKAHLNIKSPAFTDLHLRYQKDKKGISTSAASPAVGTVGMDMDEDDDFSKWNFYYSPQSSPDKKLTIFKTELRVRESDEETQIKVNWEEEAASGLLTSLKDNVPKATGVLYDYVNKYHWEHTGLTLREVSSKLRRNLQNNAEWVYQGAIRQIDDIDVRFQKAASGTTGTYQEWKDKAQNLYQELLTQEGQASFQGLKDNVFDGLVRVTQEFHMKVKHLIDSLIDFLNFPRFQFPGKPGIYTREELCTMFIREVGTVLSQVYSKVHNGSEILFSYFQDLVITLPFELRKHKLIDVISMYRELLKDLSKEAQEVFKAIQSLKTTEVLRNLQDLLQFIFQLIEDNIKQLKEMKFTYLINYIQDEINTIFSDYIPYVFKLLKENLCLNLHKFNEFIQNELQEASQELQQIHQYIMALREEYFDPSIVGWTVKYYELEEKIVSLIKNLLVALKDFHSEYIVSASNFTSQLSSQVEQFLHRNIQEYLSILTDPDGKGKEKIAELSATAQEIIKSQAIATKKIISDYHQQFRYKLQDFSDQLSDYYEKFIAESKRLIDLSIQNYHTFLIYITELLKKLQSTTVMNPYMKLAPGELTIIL
Description: (§1) The efficacy of the novel compounds to inhibit the aggregation of LDL has been tested in two parallel turbidimetric assays differing from each other only in the enzyme used to induce LDL aggregation, namely sphingomyelinase (SMase) and phospholipase A2 (PLA2), respectively.
(§2) Human LDL (d1.019-d1.063 g/mL) were obtained from pooled normolipemic human plasma by sequential ultracentrifugation in a KBr density gradient. Briefly, VLDL were first discarded after spinning plasma at 36.000 rpm for 18 h at 4° C., VLDL-free plasma was layered with 1.063 g/mL KBr solution and centrifuged at 36,000 rpm for 18 h at 4° C. LDL were dialyzed against 0.02 M Tris, 0.15 M NaCl, 1 mM EDTA, pH 7.5 for 18 hours, and then against normal saline for 2 hours. Finally, isolated LDL were filter-sterilized. Protein concentration was determined using a colorimetric assay.
(§3) Human LDL particles (1.44 mg/mL) were incubated with 40 U/L of Bacillus cereus SMase or with 50 μg/L of type II secretory PLA2 from honey bee venom in 20 mM Tris buffer (pH 7.0) containing 150 mM NaCl, 2 mM CaCl2), and MgCl2 at 37° C. LDL incubation with SMase and PLA2 was performed at peptide concentration of 10 μM (ratio compound/ApoB-100: 4.7/1) for 18 hours. LDL lipolysis was stopped by addition of EDTA (final concentration 10 mM).
(§4) The efficiency of each novel compound to inhibit LDL aggregation induced by SMase and PLA2 was estimated by turbidimetry measuring the absorbance at a wavelength of 405 nm. Thus, the inhibitory activity was calculated according to Equation I.
(§5) a corresponds to the absorbance value in the presence of nLDL particles, LDL aggregating enzyme (i.e., SMase or PLA2) and test compound;
(§6) b corresponds to the absorbance value in the presence of only nLDL particles;
(§7) c corresponds to the absorbance value in the presence of nLDL particles and LDL aggregating enzyme (i.e., SMase or PLA2);

[2] = test system: human coronary vascular smooth muscle cells (hcVSMC); experiment: Inhibition of intracellular cholesterol accumulation induced by SMase (CE/FC ratio); type: cell-based; details: hcVSMC exposed 2 hours to SMase-LDL treated overnight with peptide 10 μM; CE and FC by thin layer chromatography and densitometry, Equation II
Description: Thus, the inhibitory effect of the novel compounds on the intracellular cholesterol accumulation has been analysed in terms of decrease in the ratio of intracellular CE and free cholesterol FC content of hcVSMC exposed to LDL and SMase-LDL.
All cells used were from a unique batch in order to prevent variability from cell origin. Cell quiescence was induced by maintaining the cell culture for 24 hours in a medium. Serum-deprived cells between passages 4 and 8 were used for experiments. VSMCs at these passages appeared as a relatively homogeneous population, showing a hill-and-valley confluence pattern. Cell monolayers were grown in vascular cell basal medium supplemented with vascular smooth muscle growth kit components. Quiescent cells were 2-hours exposed to LDL treated with SMase (in absence or presence of peptides) overnight at a concentration of 10 μM previously checked its aggregation by a turbidimetry test. Cells were then either collected for lipid extraction or processed for confocal microscopy analysis.
Following the lipoprotein incubation period, hcVSMC were exhaustively washed (twice with PBS, twice with PBS supplemented with 1% BSA, and once with PBS supplemented with both 1% BSA and 100 U/mL heparin), before they were harvested into 1 mL of 0.15 M NaOH. Lipids were extracted using the Bligh and Dyer method. The lipid extract was redissolved in dichloromethane, applied to silica gel plates, and separated by thin layer chromatography. A mixture of cholesterol and cholesterol palmitate, were also run as standards. Heptane or a solvent combination of heptane/diethylether/acetic acid (74:21:4, v/v/v) were used as chromatographic mobile phase. After lipid separation, the plates were dried and stained as previously reported. Finally, the spots corresponding to cholesteryl ester (CE) and free cholesterol (FC) were quantitated by densitometry.
The efficacy of each novel compound to decrease the ratio of intracellular cholesteryl esters (CE) and free cholesterol (FC) content of hcVSMC exposed to LDL and SMase-LDL was calculated according to Equation II.
a corresponds to the CE/FC ratio in hcVSMC exposed to SMase-LDL and in the presence of the test compound.
b corresponds to the CE/FC ratio in hcVSMC exposed to nLDL in the absence of the test compound.
c corresponds to the CE/FC ratio in hcVSMC exposed to SMase-LDL in the absence of the test compound.

[3] = target: T2, PLA2-treated LDL (Homo sapiens, UniProt P04114); experiment: Anti-LDL aggregation assay, turbidimetry, aggregation induced by phospholipase A2 (PLA2); type: biochemical; details: 18 h, read-out: Inhibition of LDL aggregation, PLA2-treated LDL
T2 construct: from tissue; host or cells: pooled normolipemic human plasma
T2 sequence (P04114 28-4563): as above
Description: as §1, §2, §3, §4, §5, §6, §7

| SMILES | inhibition at 10 µM [1] [%] | CE/FC ratio decrease (%) [2] [%] | inhibition at 10 µM [3] [%] |
| --- | --- | --- | --- |
| CC(=O)N[C@H](CC(=O)O)C(=O)N[C@H](CO)C(=O)N[C@H](CCC(=O)O)C(=O)N[C@H](CC(=O)O)C(=O)N[C@H](CC(N)=O)C(=O)N[C@H](C)C(=O)N[C@H](CC(=O)O)C(=O)N[C@H](CCC(=O)O)C(=O)N[C@H](CCC(=O)O)C(=O)N[C@H](C)C(N)=O [Example 16, Ac-D-Asp-D-Ser-D-Glu-D-Asp-D-Asn-D-Ala-D-Asp-D-Glu-D-Glu-D-Ala-NH2] (Ac-[dD][dS][dE][dD][dN][dA][dD][dE][dE][dA]-NH2) | 94 | 69.5 | 61.9 |
| CC(=O)N[C@H](CC(=O)O)C(=O)N[C@H](CC(N)=O)C(=O)N[C@H](CC(=O)O)C(=O)N[C@H](CO)C(=O)N[C@H](CCC(=O)O)C(=O)N[C@H](CC(=O)O)C(=O)N[C@H](CC(N)=O)C(=O)N[C@H](CO)C(=O)N[C@H](CC(=O)O)C(=O)N[C@H](CCC(=O)O)C(=O)N[C@H](CCC(=O)O)C(=O)N[C@H](CC(N)=O)C(N)=O [Example 10, Ac-D-Asp-D-Asn-D-Asp-D-Ser-D-Glu-D-Asp-D-Asn-D-Ser-D-Asp-D-Glu-D-Glu-D-Asn-NH2] (Ac-[dD][dN][dD][dS][dE][dD][dN][dS][dD][dE][dE][dN]-NH2) | 96 | 78.4 | 94 |
| CC(=O)N[C@H](CC(=O)O)C(=O)N[C@H](CO)C(=O)N[C@H](CCC(=O)O)C(=O)N[C@H](CC(=O)O)C(=O)N[C@H](CC(N)=O)C(=O)N[C@H](CCCCN)C(=O)N[C@H](CC(=O)O)C(=O)N[C@H](CCC(=O)O)C(=O)N[C@H](CCC(=O)O)C(=O)N[C@H](C)C(N)=O [Example 19, Ac-D-Asp-D-Ser-D-Glu-D-Asp-D-Asn-D-Lys-D-Asp-D-Glu-D-Glu-D-Ala-NH2] (Ac-[dD][dS][dE][dD][dN][dK][dD][dE][dE][dA]-NH2) | 87.5 | 17.7 | 46.2 |
| CC(=O)N[C@H](CC(=O)O)C(=O)N[C@H](CO)C(=O)N[C@H](CCC(=O)O)C(=O)N[C@H](CC(=O)O)C(=O)N[C@H](CC(N)=O)C(=O)N[C@H](CO)C(=O)N[C@H](CC(=O)O)C(=O)N[C@H](CCC(=O)O)C(=O)N[C@H](CCC(=O)O)C(=O)N[C@H](C)C(N)=O [Example 15, Ac-D-Asp-D-Ser-D-Glu-D-Asp-D-Asn-D-Ser-D-Asp-D-Glu-D-Glu-D-Ala-NH2] (Ac-[dD][dS][dE][dD][dN][dS][dD][dE][dE][dA]-NH2) | 96 | 90.2 | 95.9 |
| CC(=O)N[C@H](CO)C(=O)N[C@H](CCC(=O)O)C(=O)N[C@H](CC(=O)O)C(=O)N[C@H](CC(N)=O)C(=O)N[C@H](CCCNC(=N)N)C(=O)N[C@H](CC(=O)O)C(=O)N[C@H](CCC(=O)O)C(=O)N[C@H](CCC(=O)O)C(=O)N[C@H](CCCNC(=N)N)C(N)=O [Example 6, Ac-D-Ser-D-Glu-D-Asp-D-Asn-D-Arg-D-Asp-D-Glu-D-Glu-D-Arg-NH2] (Ac-[dS][dE][dD][dN][dR][dD][dE][dE][dR]-NH2) | 85 | 58.8 | 15.3 |
| CC(=O)N[C@H](CC(=O)O)C(=O)N[C@H](C)C(=O)N[C@H](CCC(=O)O)C(=O)N[C@H](CC(=O)O)C(=O)N[C@H](CC(N)=O)C(=O)N[C@H](C)C(=O)N[C@H](CC(=O)O)C(=O)N[C@H](CCC(=O)O)C(=O)N[C@H](CCC(=O)O)C(=O)N[C@H](C)C(N)=O [Example 17, Ac-D-Asp-D-Ala-D-Glu-D-Asp-D-Asn-D-Ala-D-Asp-D-Glu-D-Glu-D-Ala-NH2] (Ac-[dD][dA][dE][dD][dN][dA][dD][dE][dE][dA]-NH2) | 95.2 | 67.4 | 66.1 |
| CC(=O)N[C@H](CO)C(=O)N[C@H](CCC(=O)O)C(=O)N[C@H](CC(=O)O)C(=O)N[C@H](CC(N)=O)C(=O)N[C@H](CO)C(=O)N[C@H](CC(=O)O)C(=O)N[C@H](CCC(=O)O)C(=O)N[C@H](CCC(=O)O)C(=O)N[C@H](CC(N)=O)C(N)=O [Example 2, Ac-D-Ser-D-Glu-D-Asp-D-Asn-D-Ser-D-Asp-D-Glu-D-Glu-D-Asn-NH2] (Ac-[dS][dE][dD][dN][dS][dD][dE][dE][dN]-NH2) | 80.7 | 58.8 | 87.7 |
| CC(=O)N[C@H](CC(N)=O)C(=O)N[C@H](CC(=O)O)C(=O)N[C@H](CO)C(=O)N[C@H](CCC(=O)O)C(=O)N[C@H](CC(=O)O)C(=O)N[C@H](CC(N)=O)C(=O)N[C@H](CO)C(=O)N[C@H](CC(=O)O)C(=O)N[C@H](CCC(=O)O)C(=O)N[C@H](CCC(=O)O)C(=O)N[C@H](CC(N)=O)C(N)=O [Example 11, Ac-D-Asn-D-Asp-D-Ser-D-Glu-D-Asp-D-Asn-D-Ser-D-Asp-D-Glu-D-Glu-D-Asn-NH2] (Ac-[dN][dD][dS][dE][dD][dN][dS][dD][dE][dE][dN]-NH2) | 94.8 | 76.5 | 95.2 |
| CC(=O)N[C@H](CC(=O)O)C(=O)N[C@H](CO)C(=O)N[C@H](CCC(=O)O)C(=O)N[C@H](CC(=O)O)C(=O)N[C@H](CC(N)=O)C(=O)N[C@H](CCCCN)C(=O)N[C@H](CC(=O)O)C(=O)N[C@H](CCC(=O)O)C(=O)N[C@H](CCC(=O)O)C(=O)N[C@H](CC(N)=O)C(N)=O [Example 18, Ac-D-Asp-D-Ser-D-Glu-D-Asp-D-Asn-D-Lys-D-Asp-D-Glu-D-Glu-D-Asn-NH2] (Ac-[dD][dS][dE][dD][dN][dK][dD][dE][dE][dN]-NH2) | 85.1 | 47.6 | 55.1 |
| CC(=O)N[C@H](CO)C(=O)N[C@H](CCC(=O)O)C(=O)N[C@H](CC(=O)O)C(=O)N[C@H](CC(N)=O)C(=O)N[C@H](CCCCN)C(=O)N[C@H](CC(=O)O)C(=O)N[C@H](CCC(=O)O)C(=O)N[C@H](CCC(=O)O)C(=O)N[C@H](CC(N)=O)C(N)=O [Example 9, Ac-D-Ser-D-Glu-D-Asp-D-Asn-D-Lys-D-Asp-D-Glu-D-Glu-D-Asn-NH2] (Ac-[dS][dE][dD][dN][dK][dD][dE][dE][dN]-NH2) | 91 | 58.8 | 36.4 |
| CC(=O)N[C@H](CC(=O)O)C(=O)N[C@H](CC(N)=O)C(=O)N[C@H](CC(=O)O)C(=O)N[C@H](CO)C(=O)N[C@H](CCC(=O)O)C(=O)NC(CC(=O)O)C(=O)N[C@H](CC(N)=O)C(=O)N[C@H](CO)C(=O)N[C@H](CC(=O)O)C(=O)N[C@H](CCC(=O)O)C(=O)N[C@H](CCC(=O)O)C(=O)N[C@H](C)C(N)=O (stereo partly drawn) [Example 13, Ac-D-Asp-D-Asn-D-Asp-D-Ser-D-Glu-D-Asp-D-Asn-D-Ser-D-Asp-D-Glu-D-Glu-D-Ala-NH2] (Ac-[dD][dN][dD][dS][dE][ξD][dN][dS][dD][dE][dE][dA]-NH2) | 95.5 | 80.4 | 95.9 |
